Data set [1] relates to pENSA. The data set is described as follows: pENSA level by immunofluorescence (described method: in vitro kinase analysis with GST-tag-MASTL and His-tag-ENSA). The note with it: for pENSA (%) Immunofluor ecense (1 µM): compound 1 µM. The format is cell-based. Here is the method:
Two recombinant GST-tag-MASTL (Thermo Fisher Scientific) and His-tag-ENSA (Sino Biological Inc., Beijing, China) were used for in vitro kinase analysis. In vitro kinase analysis was performed as described in the literature [Front Oncol 2020, 10, 571601, 39-202021-10-20doi:10.3389/fonc.2020.571601.].
Phosphorylated ENSA (pENSA), which is activated by phosphorylation by MASTL, can be utilized as a biomarker as it is expected that its activity will be inhibited along with the inhibition of MASTL. In the cell viability assay, MCF7 refers to a breast cancer cell line, and MCF10A refers to a normal breast […] cell line.

A short description of data set [2]: in vitro. The note with it: human.
Protocol: (§1) MCF7 breast cancer cell lines and MCF10A normal breast cancer cell lines were treated with serial dilutions of the compounds of the present invention ranging from 1 µM to 15.63 nM for 72 hours. Cell viability was measured by the WST-8 assay (Cyto XTM cell viability assay kit; LPS solution, Daejeon, Korea) according to the manufacturer's instructions.
Data set [3] deals with MCF7 breast cancer cell lines. The data set is described as follows: Cell viability analysis, WST-8 assay, MCF7. The note with it: for viability at 1 µM: read-out: Cell viability (%) WST-8, MCF7 (1 µM), compound 1 µM, 72 hours; for viability at 1.1 µM: read-out: Cell viability (%) WST-8, MCF7, footnote d: concentration 1.1 µM, 72 hours. For orientation: Tetrazolium dyes change colour on reduction, which living cells bring about.
Protocol: as §1

The target of data set [4] is T1, Recombinant GST-TAG-MASTL (Homo sapiens, UniProt Q96GX5).
T1 construct: GST; purchased Thermo Fisher Scientific
T1 sequence (Q96GX5 1-879): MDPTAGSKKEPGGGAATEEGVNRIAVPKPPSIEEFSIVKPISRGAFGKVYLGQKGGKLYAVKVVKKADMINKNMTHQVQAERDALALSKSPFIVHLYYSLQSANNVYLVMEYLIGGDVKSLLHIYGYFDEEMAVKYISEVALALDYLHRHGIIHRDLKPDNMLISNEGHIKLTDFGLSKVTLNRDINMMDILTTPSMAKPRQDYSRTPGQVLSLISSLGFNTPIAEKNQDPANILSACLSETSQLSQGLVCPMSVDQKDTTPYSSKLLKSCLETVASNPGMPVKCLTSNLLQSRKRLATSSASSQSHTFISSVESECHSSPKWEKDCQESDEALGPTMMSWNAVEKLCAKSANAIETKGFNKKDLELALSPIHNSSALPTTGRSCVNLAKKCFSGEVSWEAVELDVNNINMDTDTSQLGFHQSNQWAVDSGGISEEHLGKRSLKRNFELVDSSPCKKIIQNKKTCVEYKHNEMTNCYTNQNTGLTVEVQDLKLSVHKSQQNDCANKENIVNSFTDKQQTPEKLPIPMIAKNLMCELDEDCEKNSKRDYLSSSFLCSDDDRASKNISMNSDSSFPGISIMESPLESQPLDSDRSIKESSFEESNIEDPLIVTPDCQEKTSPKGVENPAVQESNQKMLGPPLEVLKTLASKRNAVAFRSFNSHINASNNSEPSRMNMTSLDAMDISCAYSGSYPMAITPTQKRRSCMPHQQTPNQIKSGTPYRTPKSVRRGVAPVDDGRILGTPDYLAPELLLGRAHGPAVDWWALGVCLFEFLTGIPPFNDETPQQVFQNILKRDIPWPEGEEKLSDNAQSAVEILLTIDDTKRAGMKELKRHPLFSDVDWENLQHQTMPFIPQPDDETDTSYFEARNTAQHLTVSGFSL
In words: HTRF-based kinase assay (HTRF KinEASE assay kit). The format is biochemical. As to conditions: for activity at 1 µM: read-out: MASTL activity (%) HTRF (1 µM). The source says:
Recombinant GST-TAG-MASTL (Thermo Fisher Scientific, MA, USA) was used for HTRF-based kinase assays. The HTRF KinEASE assay kit (CisBio, MA, USA) was used according to the manufacturer's instructions.
On the technique in general: TR-FRET usually uses a lanthanide donor and a delayed reading to cut background.

The mark [5] stands for this setting: HTRF, read-out: IC50(nM) MASTL activity.

The values below come from patent publication EP4786466A1, “QUINAZOLINE DERIVATIVE, SALT THEREOF, AND PHARMACEUTICAL COMPOSITION COMPRISING SAME AS ACTIVE INGREDIENT” (Korea Research Institute of Chemical Technology, priority 2023, dated 2025).

Each structure is given as a SMILES string. Read-outs that look alike come from different tables or passages of the source.

`Cc1cc(Nc2nc(N3CC4CC3CN4Cc3ccccc3)nc3ccccc23)n[nH]1` (stereo not shown) [compound 27f, 2-(5-benzyl-2,5-diazabicyclo[2.2.1]heptan-2-yl)-M-(5-methyl-1G-pyrazol-3-yl)quinazolin-4-amine]: in data set [1], the “pENSA (%) Immunofluor ecense (1 µM)” value was 77.4%. In addition, the viability at 1 µM in data set [2] (mcf10a cells) is 113%; in data set [3] (Homo sapiens, MCF7, 72 h), 109%. Also, the activity at 1 µM in data set [4] (compound 1 µM) was 78.4%.
`CC(C)(C)OC(=O)N1CC2(CCN(c3nc(Nc4cc(C5CC5)[nH]n4)c4ccccc4n3)CC2)C1` [compound 6c, sdqs-butyl 7-(4-((5-cyclopropyl-1G-pyrazol-3-yl)amino)quinazolin-2-yl)-2,7-diazaspiro[3.5]nonane-2-carboxylate]: the “pENSA (%) Immunofluor ecense (1 µM)” value in data set [1] turned out to be 90.5%. For the same compound, the viability at 1 µM in data set [2] (mcf10a cells) turned out to be 129%; in data set [3] (Homo sapiens, MCF7, 72 h) it was 109%. In data set [4] (setting [5]), the IC50 (usually the point on the concentration scale where inhibition reaches its midpoint) was 796 nM. The activity at 1 µM in data set [4] (compound 1 µM) stood at 32.9%.
Regarding `CC(C)CN1CC2CC1CN2c1nc(Nc2cc(C3CC3)[nH]n2)c2ccccc2n1` (stereo not shown) [compound 15f, M-(5-cyclopropyl-1G-pyrazol-3-yl)-2-(5-isobutyl-2,5-diazabicyclo[2.2.1]heptan-2-yl)quinazolin-4-amine], the “pENSA (%) Immunofluor ecense (1 µM)” value in data set [1] amounted to 65.3%. Moreover, the viability at 1 µM in data set [2] (mcf10a cells) was 90.1%; in data set [3] (Homo sapiens, MCF7, 72 h), 71.7%. In addition, the activity at 1 µM in data set [4] (compound 1 µM) stood at 65.7%.
Consider `O=C(Nc1ccccc1)N1CC2CC1CN2c1nc(Nc2cc(C3CC3)[nH]n2)c2ccccc2n1` (stereo not shown) [compound 15c, 5-(4-((5-cyclopropyl-1G-pyrazol-3-yl)amino)quinazolin-2-yl)-M-phenyl-2,5-diazabicyclo[2.2.1]heptane-2-carboxamide], for which the “pENSA (%) Immunofluor ecense (1 µM)” value in data set [1] is on record as 11.3%. In addition, the values for the IC50 in data set [1] (read-out: IC50(nM) pENSA) and in data set [4] (setting [5]) were 576 nM and 265 nM, respectively. Further, the viability at 1 µM in data set [2] (mcf10a cells) was 40%; in data set [3] (Homo sapiens, MCF7, 72 h), 93%. Also, in data set [4] (compound 1 µM), the activity at 1 µM turned out to be 41.2%.
As to `CC(C)(C)OC(=O)NCCCCNC(=O)c1ccc(Nc2nc(Nc3cc(C4CC4)[nH]n3)c3ccccc3n2)cc1` [4y, sdqs-butyl (4-(4-((4-((5-cyclopropyl-1G-pyrazol-3-yl)amino)quinazolin-2-yl)amino)benzamido)butyl)carbamate], the “pENSA (%) Immunofluor ecense (1 µM)” value in data set [1] amounted to 164%. Also, the viability at 1 µM in data set [2] (mcf10a cells) is 80.2%; in data set [3] (Homo sapiens, MCF7, 72 h) it was 78.7%. For the same compound, the activity at 1 µM in data set [4] (compound 1 µM) was found to be 75.3%.
`c1ccc2c(Nc3cc(C4CC4)[nH]n3)nc(Nc3cnc4[nH]ccc4c3)nc2c1` [compound 4dg, N^4-(5-cyclopropyl-1H-pyrazol-3-yl)-N^2-(1H-pyrrolo[2,3-b]pyridin-5-yl)quinazoline-2,4-diamine]: the viability at 1 µM in data set [2] was 12%; in data set [3] (Homo sapiens, MCF7, 72 h) it was 49%. Besides, the activity at 1 µM in data set [4] (compound 1 µM) turned out to be 37.9%.
In the case of `Cc1n[nH]c(C)c1Nc1nc(Nc2ccc(CC#N)cc2)nc2ccccc12` [compound 3d, 2-(4-((4-((3,5-dimethyl-1G-pyrazol-4-yl)amino)quinazolin-2-yl)amino)phenyl)acetonitrile], the viability at 1.1 µM in data set [2] (mcf10a cells) came out at 101%; in data set [3] (Homo sapiens, MCF7, 72 h), 132%. For the same compound, the activity at 1 µM in data set [4] was found to be 93.7%.
Consider `CC(C)(C)OC(=O)N1CC2C(C1)C2Nc1nc(Nc2cc(C3CC3)[nH]n2)c2ccccc2n1` (stereo not shown) [compound 4cg, tert-butyl 6-((4-((5-cyclopropyl-1H-pyrazol-3-yl)amino)quinazolin-2-yl)amino)-3-azabicyclo[3.1.0]hexane-3-carboxylate], for which the viability at 1 µM in data set [2] stood at 117%. The “Cell viability (%) WST-8, MCF7 (1 µM)” value in data set [3] (compound 1 µM, 72 hours, 1 µM) is 73.6%. Moreover, the “MASTL activity (%) HTRF (1 µM)” value in data set [4] (compound 1 µM, 1 µM) worked out at 76.4%.
Regarding `CC(C)S(=O)(=O)c1ccccc1Nc1nc(Nc2ccc(CC#N)cc2)nc2ccccc12` [compound 3g, 2-(4-((4-((2-(isopropylsulfonyl)phenyl)amino)quinazolin-2-yl)amino)phenyl)acetonitrile], the viability at 1.1 µM in data set [2] amounted to 99.7%; in data set [3] (Homo sapiens, MCF7, 72 h) it was 109%. Also, in data set [4] (footnote c: concentration 3.3 µM), the activity at 3.3 µM amounted to 127%.
As to `Cc1nn(C)c(C)c1Nc1nc(Nc2ccc(CC#N)cc2)nc2ccccc12` [3c, 2-(4-((4-((1,3,5-trimethyl-1G-pyrazol-4-yl)amino)quinazolin-2-yl)amino)phenyl)acetonitrile], the viability at 1.1 µM in data set [2] (mcf10a cells) worked out at 115%; in data set [3] (Homo sapiens, MCF7, 72 h), 110%. Also, the activity at 1 µM in data set [4] stood at 123%.
`N#CCc1ccc(Nc2nc(Nc3ccccc3F)c3ccccc3n2)cc1` [compound 3k, 2-(4-((4-((2-fluorophenyl)amino)quinazolin-2-yl)amino)phenyl)acetonitrile]: the viability at 1 µM in data set [2] is 96.6%; in data set [3] (Homo sapiens, MCF7, 72 h), 120%. In addition, the activity at 1 µM in data set [4] (compound 1 µM) was 99.1%.
Consider `CNC(=O)c1ccc(Nc2nc(Nc3cc(C4CC4)[nH]n3)c3ccccc3n2)cc1` [4ae, 4-((4-((5-cyclopropyl-1G-pyrazol-3-yl)amino)quinazolin-2-yl)amino)-M-methylbenzamide], for which the viability at 1 µM in data set [2] (mcf10a cells) was 70.5%; in data set [3] (Homo sapiens, MCF7, 72 h), 72.8%. In addition, the activity at 1 µM in data set [4] (compound 1 µM) was determined as 41.7%.
`c1ccc2c(Nc3cc(C4CC4)[nH]n3)nc(Nc3cnc4cccnn34)nc2c1` [compound 4dh, N^4-(5-cyclopropyl-1H-pyrazol-3-yl)-N^2-(imidazo[1,2-b]pyridazin-3-yl)quinazoline-2,4-diamine]: the viability at 1 µM in data set [2] amounted to 111%; in data set [3] (Homo sapiens, MCF7, 72 h) it was 116%. Moreover, the activity at 1 µM in data set [4] (compound 1 µM) worked out at 88.7%.
Turning to `N#Cc1ccc(Nc2nc(Nc3cc(C4CC4)[nH]n3)c3ccccc3n2)cc1` [compound 4d, 4-((4-((5-cyclopropyl-1G-pyrazol-3-yl)amino)quinazolin-2-yl)amino)benzonitrile], the viability at 1.25 µM stood at 3.2% in data set [2] (mcf10a cells) and 5.6% in data set [3] (Homo sapiens, MCF7, 72 h, read-out: Cell viability (%) WST-8, MCF7, footnote a: concentration 1.25 µM, 72 hours). Besides, the “selectivity for breast cancer cells over normal cells in the cell viability assay” value in data set [3] (MCF7 versus MCF10A) was “selectively inhibit only breast cancer cells”. Moreover, in data set [4], the IC50 turned out to be 625 nM. The activity at 1.25 µM in data set [4] (read-out: MASTL activity (%) HTRF) was 32.6%.
Regarding `N#CCc1ccc(Nc2nc(Nc3cn[nH]c3)c3ccccc3n2)cc1` [compound 3f, 2-(4-((4-((1G-pyrazol-4-yl)amino)quinazolin-2-yl)amino)phenyl)acetonitrile], the viability at 1.1 µM in data set [2] (mcf10a cells) worked out at 98.3%; in data set [3] (Homo sapiens, MCF7, 72 h), 117%. Besides, the activity at 1 µM in data set [4] stood at 92.5%.
With `N#CCc1ccc(Nc2nc(Nc3nnc(C4CC4)s3)c3ccccc3n2)cc1` [compound 3l, 2-(4-((4-((5-cyclopropyl-1,3,4-thiadiazol-2-yl)amino)quinazolin-2-yl)amino)phenyl)acetonitrile], the viability at 1 µM stood at 104% in data set [2] and 80.5% in data set [3] (Homo sapiens, MCF7, 72 h). Further, the activity at 1 µM in data set [4] (compound 1 µM) was determined as 114%.
For the compound `N#CCc1ccc(Nc2nc(NC3=NC(=O)CS3)c3ccccc3n2)cc1` [compound 3j, 2-(4-((4-((4-oxo-4,5-dihydrothiazol-2-yl)amino)quinazolin-2-yl)amino)phenyl)acetonitrile], the viability at 1 µM in data set [2] stood at 84.2%; in data set [3] (Homo sapiens, MCF7, 72 h) it was 108%. Also, the activity at 1 µM in data set [4] (compound 1 µM) was found to be 92.5%.
On to `c1ccc2c(Nc3cc(C4CC4)[nH]n3)nc(Nc3ccc4cn[nH]c4c3)nc2c1` [compound 4de, N^4-(5-cyclopropyl-1H-pyrazol-3-yl)-N^2-(1H-indazol-6-yl)quinazoline-2,4-diamine], for which the viability at 1 µM in data set [2] turned out to be 24%; in data set [3] (Homo sapiens, MCF7, 72 h), 44.2%. In addition, the activity at 1 µM in data set [4] (compound 1 µM) was found to be 31.8%.
